Series [1] addresses T1, xanthine oxidase (Bos taurus, UniProt P80457).
T1 construct: purchased Boeringer (sic; Boehringer)
The experiment in a line: Reduction of the Tc nitroimidazole complexes by xanthine oxidase. The series is classed as biochemical. As to conditions: xanthine oxidase 1.25 units, hypoxanthine, pH 7.4, anaerobic (argon), up to 7 hours. An excerpt: The enzyme xanthine oxidase (in the presence of xanthine or hypoxanthine) is known to reduce the nitro group of such nitroimidazole-containing compounds as misonidazole and metronidazole (see for example P. D. Josephy, B. Palcic and L. D. Skarsgard,. “Reduction of Misonidazole and its Derivatives by Xanthine Oxidase”, Biochem. Pharmacol., 1981, 30, 849), and it has been postulated that such nitro reduction under anaerobic conditions is responsible for the selective trapping of these compounds in hypoxic tissue. Thus, a technetium or rhenium containing nitroimidazole complex should be capable of being reduced by xanthine oxidase under anaerobic conditions in the presence of hypoxanthine.
To a 2.5 mL quartz cuvette was added 0.25 micromoles of the ^99Tc-nitroimidazole complex of Example 6 or 6b in 125 μL of dimethylformamide, 1 mL of 0.01M hypoxanthine in pH 7.4 sodium phosphate buffer (0.1M), and 0.875 mL of 0.1M sodium phosphate buffer (pH 7.4) that contained 20 mg/L of disodium ethylenediamine tetraacetic acid (EDTA). The cuvette was sealed with a rubber septum, and purged with argon for 15 minutes to remove oxygen. To this was added 1.25 units of the enzyme xanthine oxidase (Boeringer) in 0.5 mL of deoxygenated pH 7.4 phosphate buffer. The cuvette was inverted to mix, and the UV/visible spectrum of the solution was recorded from 280 to 600 nm at 15 minute intervals.
It is believed that the disappearance of this nitro absorbance is due to reduction of the nitro group by xanthine oxidase.
In a parallel control reaction, the reagents above were mixed in the same fashion, but the ^99Tc complex of 3,3,9,9-tetramethyl-4,8-diazaundecane-2,10-dione dioxime (prepared by the method of Jurisson et al., Inorg. Chem., 1986, 25, 543) was substituted for the technetium complexes of Examples 6 or 6b.

Series [2] in a line: Determination of reduction potential by cyclic voltammetry. Format: physicochemical. As to conditions: for Epc(V): cyclic voltammetry in dimethylformamide at Hg, vs. Ag/AgNO3; for Reduction process: cyclic voltammetry in dimethylformamide. As to the method: The reduction potentials of misonidazole, ^99TcO(PnAO), and ^99Tc-hypoxia-localizing tracers were determined by cyclic voltammetry (C.V.) in dimethylformamide. […] The reference electrode was Ag/AgNO3 with an acetonitrile filling solution saturated with LiCl. The counter electrode was a platinum wire. Voltamograms at mercury were determined at scan rates of 50, 100, 200, and 500 mV/s.
The solutions used in C.V. studies contained test sample at a concentration of 0.2-0.7 mM and tetrabutylammonium tetrafluoroborate (Bu4NBF4) or tetrabutylammonium hexafluorophosphate (Bu4NPF6) supporting electrolyte at a concentration of 0.1M. The solution was deoxygenated by bubbling solvent-saturated nitrogen or argon through the solution for 15 minutes. Variations in the reference potential were accounted for by determining the C.V. of a Ru(acac)3 standard on a daily basis.

In series [3] the test system is hypoxic ischemic border zone. The experiment in a line: Rabbit focal myocardial ischemia model (LAD occlusion), double-label autoradiography. Format: in vivo. Conditions: permanent LAD coronary artery ligation, intravenous tracer, heart sections. As for the experimental part: A model of focal myocardial ischemia in the rabbit was developed, using permanent ligation of the left anterior descending (LAD) coronary artery. The model consisted of two studies. In the first, relative regional myocardial blood flow (MBF) and relative regional myocardial rate of glucose metabolism (MMRgl) were determined by autoradiography using a double-label study with the flow tracer ^99mTcCl(CDO)3MeB (R. K. Narra et al., J. Nucl. Med., 1989; 30:1830-1837) and ^14C-deoxy-glucose for MMRgl (L. Sokoloff et al., J. Neurochem., 1977, 28, 897-916). ^14C-deoxyglucose and the ^99mTc-hypoxia-localizing tracer were administered to a second group of rabbits with LAD coronary artery occlusion.
After the surgical preparation and 20 minutes of LAD occlusion, ^14C-deoxyglucose (130-150 μCi) was injected as an intravenous bolus, and timed arterial blood samples were obtained. Twenty-five minutes later, ^99mTcCl(CDO)3MeB (10-12 mCi) was administered intravenously. Five minutes later, the rabbits were sacrificed by intravenous injection of Nembutal and potassium chloride. The heart was excised, frozen in liquid Freon-22, and 20 μm coronal sections obtained with a Microtome. Autoradiographs were obtained on all sections. For the first exposure (˜14 hours duration) of Kodak XAR film, extra heavy duty aluminum foil was interposed between the tissue and film to block completely the radiation emanating from ^14C to obtain the MBF information derived from ^99mTcCl(CDO)3MeB alone. After three days (to allow for decay of ^99mTc); a second autoradiograph was obtained without foil. The second exposure lasted 6-8 days, and,provided an image of the regional distribution of ^14C-deoxyglucose.
In a separate experiment using the rabbit LAD occlusion model and the double-label autoradiography procedures described above, the performance of the ^99mTc complex of the ligand described in Example 1 was compared to that of ^14C-misonidazole.

The test system of series [4] is Calcium-tolerant ventricular myocytes. The series can be described thus: Isolated cardiac myocyte studies, retention of radioactivity. The series is classed as cell-based, male Sprague Dawley rats. Conditions: isolated myocytes. An excerpt:
Calcium-tolerant ventricular myocytes were isolated from hearts of male Sprague Dawley rats (200 g) according to the procedure of Wittenberg and Robinson (B. A. Wittenberg and T. F. Robinson, Cell Tissue Res., 216: 231, 1981) with modifications described previously (W. Rumsey, C. Schlosser, E. M. Nuutinen, M. Robiolio and D. F. Wilson, J. Biol. Chem., 265 (26): 15392, 1990). Cells were used immediately following morphological analysis (using a hemocytometer) of viability and were maintained at 37° C. during the experiments. The number of quiescent, rod shaped cells ranged from 70-90% within a total population of 5-9×10^6 cells.
The isolated myocytes were maintained in either a normoxic, hypoxic or anoxic state. Hypoxia was induced by providing an atmosphere of argon atop of the cells and sealing the flask during the incubation period. Glucose oxidase plus catalase (5/5 mg) was added to argon treated cells to provide anoxia. Cells were suspended (6.5-7.5×10^4 cells/ml) in isolation media and aliquots were added to incubation vials maintained at 37° C.
After incubation with a test compound, myocytes were deproteinated with 1% ice-cold perchloric acid and centrifuged at 12,000 rpm for 30 sec. The supernatent was separated from the pellet and each counted using a LKB 1282 gamma counter. Alternatively, myocytes were separated from the suspending media by passing the cells through 99% dibutyl phthalate by centrifugation at 12,000 rpm for 30 sec. The three phases were separated and counted as described above. Results for the Tc-99m complex of the compound in Example 1 are given below:
Values represent means ±S.E.M. for the number of experiments noted in the parentheses. The values are the percent of total radioactivity represented by each case. PCA pellet=perchloric acid-precipitated pellet which represents the activity associated with proteins/membranes. Cell pellet=whole cells passed through a layer of dibutyl phthalate (oil).
Several Tc-99m complexes were examined in isolated myocytes using the protocol described above. The percentage of activity retained in the cell pellet was determined under anoxic and normoxic states.

In series [5] the test system is hypoxic border zone. The experiment in a line: Rat focal cerebral ischemia model (MCA occlusion), double-label autoradiography. Format: in vivo, spontaneously hypertensive rats (SHR). Conditions: SHR, injected 1 hour or five days after MCA occlusion, both time points. As for the experimental part:
A model of focal cerebral ischemia involving tandem occlusion of the internal carotid artery and the ipsilateral middle cerebral artery (MCA) in spontaneously hypertensive rats (SHR) was characterized using the double-label autoradiography procedure described in Example 10. […] Following surgery, which was performed under Halothane anesthesia, the rats were allowed to recover and one hour after the MCA occlusion, ^14C-deoxyglucose was injected as an IV bolus and timed arterial samples were obtained. Twenty-five minutes after ^14C-deoxyglucose injection, ^99mTcCl(DMG)32MP was injected as an IV bolus and the rat was sacrificed 15 seconds later. The brain was rapidly removed and sections and autoradiograms were obtained as described in Example 10. As found in Example 10 for the rabbit LAD occlusion model, the ischemic territory was bordered by a rim of tissue in which glycolysis was elevated. […] Nevertheless, it was clear that the ischemic region is surrounded by a border zone of increased glycolysis. In a second series of experiments, the ^99mTc complex of the ligand described in Example 1 and ^14C-deoxyglucose were co-injected 1 hour or five days after MCA occlusion.

T1 sequence (P80457 whole entry): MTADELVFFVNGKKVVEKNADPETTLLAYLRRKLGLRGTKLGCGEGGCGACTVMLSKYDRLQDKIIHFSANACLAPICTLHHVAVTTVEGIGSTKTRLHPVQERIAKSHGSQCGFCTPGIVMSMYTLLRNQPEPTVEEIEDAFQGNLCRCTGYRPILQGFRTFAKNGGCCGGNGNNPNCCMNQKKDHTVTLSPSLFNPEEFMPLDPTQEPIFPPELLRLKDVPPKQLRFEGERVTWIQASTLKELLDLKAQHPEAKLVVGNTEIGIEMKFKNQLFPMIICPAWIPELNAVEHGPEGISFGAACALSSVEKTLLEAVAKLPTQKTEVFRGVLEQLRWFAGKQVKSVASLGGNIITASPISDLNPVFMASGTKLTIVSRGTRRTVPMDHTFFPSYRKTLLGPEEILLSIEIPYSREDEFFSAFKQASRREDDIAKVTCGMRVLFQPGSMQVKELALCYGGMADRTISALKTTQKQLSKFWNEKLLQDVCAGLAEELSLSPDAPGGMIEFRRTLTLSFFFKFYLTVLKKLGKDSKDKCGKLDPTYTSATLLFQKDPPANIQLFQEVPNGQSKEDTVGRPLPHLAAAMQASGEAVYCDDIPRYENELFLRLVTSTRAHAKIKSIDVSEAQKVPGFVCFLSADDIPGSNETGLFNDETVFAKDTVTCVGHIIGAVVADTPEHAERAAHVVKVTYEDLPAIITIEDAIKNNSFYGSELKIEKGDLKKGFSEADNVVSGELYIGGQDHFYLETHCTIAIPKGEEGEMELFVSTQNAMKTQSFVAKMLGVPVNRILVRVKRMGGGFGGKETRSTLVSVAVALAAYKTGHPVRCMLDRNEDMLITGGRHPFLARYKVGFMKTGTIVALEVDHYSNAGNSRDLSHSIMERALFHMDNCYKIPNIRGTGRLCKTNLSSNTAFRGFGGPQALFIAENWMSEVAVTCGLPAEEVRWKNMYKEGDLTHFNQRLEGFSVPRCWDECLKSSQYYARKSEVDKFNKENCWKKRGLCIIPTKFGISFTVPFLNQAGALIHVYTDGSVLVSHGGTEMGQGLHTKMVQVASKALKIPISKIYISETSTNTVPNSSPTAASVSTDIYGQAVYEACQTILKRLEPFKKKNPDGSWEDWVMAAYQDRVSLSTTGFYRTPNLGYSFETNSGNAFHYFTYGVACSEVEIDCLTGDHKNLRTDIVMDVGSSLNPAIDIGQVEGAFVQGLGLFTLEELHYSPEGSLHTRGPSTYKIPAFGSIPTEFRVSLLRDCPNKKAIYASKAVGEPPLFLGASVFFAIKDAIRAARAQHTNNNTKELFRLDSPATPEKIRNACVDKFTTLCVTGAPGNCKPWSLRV

For the molecule `CC1=[N+](O)[99Tc-]23(=[O])[N](CCC[N]2C1(C)C)C(C)(C)C(Cn1ccnc1[N+](=O)[O-])=[N+]3[O-]` [Example 6, [^99Tc]Oxo[[3,3,9,9-tetramethyl-1-(2-nitro-1H-imidazo-1-yl)-4,8-diazaundecane-2,10-dione dioximato]-(3-)-N,N′,N″,N′″]technetium(V)], in series [1], the “absorbance peak at approximately 320 nm (nitroimidazole functionality), UV/visible spectral change” value (shortened to “absorbance peak … UV/visible spectral change”) was “decreased in intensity”. Besides, in series [2] (first or only reduction listed), the “Epc(V)” value is recorded as −1.49 V and the Reduction process entry was “reversible”. For the same molecule, in series [2] (second reduction listed), the “Epc(V)” value is listed as −1.99 V and the Reduction process entry was “irreversible”.
As to `CC(=NO)C(C)(C)NCC(C)CNC(C)(C)C(C)=NO` (stereo not shown) [^99mTc Complex of 6-methyl-PnAO, ^99mTc-complexes of 6-methyl PnAO (3,3,6,9,9-pentamethyl-4,8-diazaundecane-2,10-dione dioxime), metal not drawn, reference compound], the “regional myocardial distribution pattern (autoradiography)” value in series [3] is “no differentiation of ischemic and non-ischemic regions”. Further, the Anoxia/normoxia ratio in series [4] (% in Cell Pellet) was determined as 1.3. In addition, in series [4] (several Tc-99m complexes), the “% in Cell Pellet, Anoxia” value was 22.7 (n = 1) % and the “% in Cell Pellet, Normoxia” value is 17.4 (n = 1) %.
In the case of ^14C-deoxyglucose [reference compound], in series [3], the “regional myocardial distribution pattern (autoradiography)” value is on record as “high uptake in the ischemic border zone”. Also, the “uptake in brain autoradiograms” value in series [5] is listed as “increased uptake in the hypoxic border zone relative to surrounding normoxic tissue”.
Regarding `CC1=[N+](O)[99Tc-]23(=[O])[N](CC(O)C[N]2C1(C)C)C(C)(C)C(Cn1ccnc1[N+](=O)[O-])=[N+]3[O-]` (stereo not shown) [Example 6b, [^99Tc]Oxo[[6-hydroxy-3,3,9,9-tetramethyl-(2-nitro-1H-imidazo-1-yl)-4,8-diazaundecane-2,10-dione dioximato]-(3-)-N,N′,N″,N′″]technetium (V)], the “absorbance peak … UV/visible spectral change” value in series [1] was “decreased in intensity”. In addition, the “Epc(V)” value was −1.48 V in series [2] (first or only reduction listed) and −1.96 V in series [2] (second reduction listed). Further, the values for the Reduction process result in series [2] (first or only reduction listed) and in series [2] (second reduction listed) were “reversible” and “irreversible”, respectively.
Consider `CC1=[N+]([O-])[99Tc-]23(=[O])[N](CCC[N]2C(C)(C)C(C)=[N+]3O)C1(C)C` [^99TcO(PnAO), Tc(V) Oxo 3,3,9,9-tetramethyl-4-8-diazaundecane-2,10-dione-dioxime, reference compound], for which the “absorbance peak … UV/visible spectral change” value in series [1] is “no spectral changes were observed over a period of 7 hours”. Moreover, in series [2] (first or only reduction listed), the “Epc(V)” value is given as −2.15 V and the Reduction process entry is “irreversible”.

(Values after US6958141B2, “Rhenium and technetium complexes containing a hypoxia-localizing moiety” (Bracco International B.V., priority 1991, dated 2005).)
